From publication PMC7812667 (ACS Medicinal Chemistry Letters, 2020)

Assay: LogD shake-flask, octanol and water
Format: physicochemical
Conditions: pH 7.4

reduction in logD (versus compound 5): over 1.5 log units
SMILES: c1ccc(Cc2c[nH]c3ncc(-c4cnn(C5CCNCC5)c4)cc23)cc1 [Compound 6]
